Experimental data: US7129218B2, “Use of rhamnolipids in wound healing, treatment and prevention of gum disease and periodontal regeneration” (Paradigm Biomedical, Inc., priority 1999, dated 2006)

What was measured:
burn wounds = assay: Burn wounds, 15% body surface, treatment started 50 days after burning (rats); assay type: in vivo, Sprague-Dawley rats; details: 15% burn, open wounds after 50 days placebo; 1% BAC-3 ointment, tapering schedule
Text: The wound surface areas tested were of two different sizes. One size to 7% of the body surface, which enables one to compare the rate of wound healing with different percentage of BAC-3 and the other size to 15% of the body surface, which is a sufficient size so that healing could not occur by contraction alone. On the other hand, the total wound surface area should not cause major systematic problems. The latter can be concluded from undisturbed weight gain of the animals. The standard animal burn was performed by techniques and device described by Walker. The burning devices were prepared using a model device ordered from U.S. Army Surgical Research Unit, Experimental Surgery, Army Medical Center, Fort Sam Houston, Tex. 78234. The devices had apertures which enabled exposure of 7% and 15% of the total rat skin surface. The surface of the skin was measured for every animal using Mech's formula: A=kW^2/3; A=surface area in cm^2; W=body weight in grams; k=10.
Method of burning. Each animal was anesthetized with sodium pentobarbital administered i/p (5 mg/25 g). (Producer: Veterinary Laboratory Inc. Lenexa, Kans.). The hair over the dorsum was clipped with animal clippers. The animal was placed supine in the burning device and the extremities were tied; the malleable retractor was placed over the animal and secured snugly with plastic straps. […]

venous ulcer = assay: Open wound healing in a patient with incurable venous ulcer; assay type: in vivo, human; details: 1% BAC-3 ointment twice daily during 41 days
Method: The BAC-3 rhamnolipid was tested in the case of open wound healing, in a patient suffering around ten years from incurable venous ulcer. On the left leg, the patient had very thick layers of collagen with fibrotic lesions. […] Moreover, after treatment was finished, not only the collagen, but also the fibrotic lesions had disappeared as well. One year after the treatment, the treated skin lesions on the left leg appear normal, and all skin collagen and fibrotic layers had disappeared.

[1] = tested on: neonatal human keratinocyte cells; assay: Caspase detection in neonatal human keratinocyte cells in KGM (serum free) medium; assay type: cell-based
Method: The procedure for caspase detection in neonatal human keratinocyte cells in KGM* (serum free) medium treated With BAC-3 using fluorescence spectroscopy
The same procedure as described for fibroblasts except different growth conditions were used (NHK97-45 passage #3 cell line was used). Neonatal human keratinocytes were without the presence of serum (KGM medium). Prior to treatment with BAC-3, passage #3 cells were grown in KGM medium for 7 days with one medium change (until 80% confluent). For preparing positive apoptosis control, plates were irradiated with UVB light for 66 seconds (792 J/m^2).
Cells, at 80% confluence, were administered BAC-3 in KGM at 50 μg/ml, 10 μg/ml, 1 μg/ml and 0.5 μg/ml concentrations. Medium was replaced every two days over the period of 6 days. On day 3, positive apoptosis control was established by irradiating cells with 792 J/m^2 UVB light and incubating them with 1 μg/ml FAS antibody. BAC-3 treated and control cells were harvested and cell densities were adjusted to 1×10^6 cells per ml with FM. 300 μl cell aliquots were labeled with FAM-VAD-FMK, fluorescent-tagged, irreversible caspase inhibitor. Unlabelled inhibitor was washed away with buffer and 100 μl aliquots were read at 485 nm excitation and 535 nm emission with fluorescence detector. Error bars indicate standard deviations.

CCCCCCCC(CC(=O)O)OC(=O)CC(CCCCCCC)OC1OC(C)C(O)C(O)C1OC1OC(C)C(O)C(O)C1O [BAC-3, (α-L-rhamnopyranosyl-(1,2)-α-L-rhamnopyranosyl)-3-hyroxydecanoyl-3-hydroxydecanoic acid]
time to whole epithelization in all animals (burn wounds): 30 days | collagen and fibrotic lesions after treatment (venous ulcer; after treatment and one year later): disappeared | patient's condition (venous ulcer; one patient, venous ulcer, left leg): significantly improved | optimal concentration for inducing apoptosis (caspase activity peak) ([1]; keratinocytes in KGM serum free, 6 days, tested 50, 10, 1 and 0.5 μg/ml): 1 µg/mL | mechanism of cell death at higher concentrations ([1]; keratinocytes in KGM, higher concentrations of BAC-3 (detergent effect)): cell necrosis
